Experiments:
[1] = inhaled; cited from earlier work
[2] = Stability under acidification (pH 1-2) and heating (100° C. for 5 min); format: physicochemical; settings: acidification to pH 1-2, heating to 100° C. for 5 min
Description: Since the EGF receptor can be activated by either EGF or transforming growth factor-α (TGF-α), and TGF-α is important in fetal development, and is also elaborated by the distal nephron, the EGF and TGF-α content of human amniotic fluid was measured, using specific radioimmunoassays and immunoprecipitation and immunoblotting. […] EGF, but not TGF-α, is stable under these conditions. […] In neonates, mature EGF (6 kD) is the predominant form in urine.
No significant concentration (<0.6 ng/ml) of TGF-α or EGF in human amniotic fluid was detectable directly by RIA or RRA.

[3] = animal models; cited from earlier work
type II pneumocytes = settings: applied to type II pneumocytes in culture; cited from earlier work

Compound	half-life [1]	stability [2]	toxicity [3]	production of surfactant (type II pneumocytes)
[N]=O [inhaled nitric oxide, nitric oxide]	very short			
epidermal growth factor [EGF]		stable	no toxicity	stimulates production of surfactant

From patent publication US6939534B2, “Method to treat pulmonary hypoplasia in the newborn” (GenoMed, LLC, priority 2001, dated 2005)
